Experimental data as given in the supplement of paper PMC10307832.

Key:
Test in all cases: relative viability (nuclei count vs DMSO), 5 days (fraction); higher = more cells survive
[1] = compound: C1=CC=C(C(=C1)C2=CC=C(C=C2)C3=CSC4=C3C(=C(C(=O)N4)C#N)O)O + CCNC(=O)c1noc(-c2cc(C(C)C)c(O)cc2O)c1-c1ccc(CN2CCOCC2)cc1 [Luminespib] (partner 0.01 µM)
In short: (§1)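 Dosing by pin tool came one day after lung cancer cell lines were seeded in 1536-well plates, using either one drug or a fixed anchor-drug dose plus five library-drug doses (not always all listed) in √10 steps. After 5 days, nuclei were counted on 4× images. Relative viability is treated-well nuclei count divided by vehicle-well nuclei count, and values are medians of duplicate plates.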

[2] = compound: CC1=CN2C(=O)C=C(N=C2C(=C1)C(C)NC3=CC=CC=C3)N4CCOCC4 [TGX 221] + Nc1ncn([C@H]2C[C@H](O)[C@@H](CO)O2)c(=O)n1 [Decitabine] (partner 2 µM)
In short: as §1

[3] = compound: CC1=CN2C(=O)C=C(N=C2C(=C1)C(C)NC3=CC=CC=C3)N4CCOCC4 [TGX 221] + O=C(CCCCCCC(=O)Nc1ccccc1)NO [Vorinostat] (partner 1 µM)
In short: as §1

[4] = compound: O=C(CCCCCCNC(=O)c1cnc(N(c2ccccc2)c2ccccc2)nc1)NO [Ricolinostat] + CC(C)C[C@H](NC(=O)[C@H](Cc1ccccc1)NC(=O)c1cnccn1)B(O)O [Bortezomib] (partner 0.002 µM)
In short: as §1

Cell Line	relative viability ([1]; first compound 0.08 µM)	relative viability ([1]; first compound 0.253 µM)	relative viability ([1]; first compound 0.8 µM)	relative viability ([1]; first compound 2.53 µM)	relative viability ([1]; first compound 8 µM)	relative viability ([2]; first compound 0.08 µM)	relative viability ([2]; first compound 0.253 µM)	relative viability ([2]; first compound 0.8 µM)	relative viability ([2]; first compound 2.53 µM)	relative viability ([2]; first compound 8 µM)	relative viability ([3]; first compound 0.08 µM)	relative viability ([3]; first compound 0.253 µM)	relative viability ([3]; first compound 0.8 µM)	relative viability ([3]; first compound 2.53 µM)	relative viability ([3]; first compound 8 µM)	relative viability ([4]; first compound 0.08 µM)	relative viability ([4]; first compound 0.253 µM)	relative viability ([4]; first compound 0.8 µM)	relative viability ([4]; first compound 2.53 µM)
201T	0.873	0.981	1.03	1.09	1.08	0.831	0.85	0.844	0.871	0.873	1	0.956	0.902	0.927	0.879	0.989	1.11	1.09	1.12
A549	–	–	–	–	–	0.337	0.25	0.294	0.26	0.349	–	–	–	–	–	–	–	–	–
CAL-12T	0.296	0.565	0.362	0.585	0.264	–	–	–	–	–	0.826	0.7	0.75	0.876	0.707	0.814	0.833	0.816	0.937
Calu-6	–	–	–	–	–	–	–	–	–	–	–	–	–	–	–	1.08	1.01	0.982	0.957
EBC-1	–	–	–	–	–	–	–	–	–	–	–	–	–	–	–	0.49	0.458	0.386	0.263
HCC-78	–	–	–	–	–	0.589	0.736	0.699	0.693	0.68	0.518	0.449	0.428	0.338	0.362	–	0.475	0.455	0.686
HCC-366	–	–	–	–	–	0.333	0.305	0.345	0.344	0.365	0.357	0.327	0.365	0.292	0.351	0.906	1.11	0.904	0.639
IA-LM	–	–	–	–	–	–	–	–	–	–	–	0.981	1.01	0.827	0.941	0.628	0.696	0.73	0.594
LK-2	–	0.192	0.193	0.184	0.191	0.341	0.308	0.25	0.296	0.307	0.356	0.309	0.249	0.415	0.505	–	–	–	–
NCI-H358	0.304	0.331	0.293	0.603	0.221	0.22	0.216	0.209	0.181	0.203	0.746	0.663	0.71	0.668	0.602	–	–	–	–
NCI-H522	–	1.28	1.2	1.27	0.937	0.717	0.624	0.696	0.587	0.64	0.976	0.822	0.883	0.831	0.826	–	–	–	–
NCI-H1299	–	–	–	–	–	–	–	–	–	–	–	–	–	–	–	0.998	0.955	1.04	0.937
NCI-H1395	0.933	0.683	0.658	0.641	0.5	0.712	0.685	0.662	0.615	0.614	0.601	0.537	0.553	0.557	0.664	–	–	–	–
NCI-H1563	0.525	0.613	0.551	0.587	0.517	–	–	–	–	–	–	–	–	–	–	0.754	0.758	0.837	0.787
NCI-H1623	0.454	0.591	0.817	0.434	0.419	–	–	–	–	–	–	–	–	–	–	–	–	–	–
NCI-H1648	–	–	–	–	–	–	0.554	0.499	0.474	0.523	–	0.295	0.651	0.395	0.421	–	–	–	–
NCI-H1703	–	–	–	–	–	–	–	–	–	–	–	–	–	–	–	–	0.299	0.261	0.172
NCI-H1793	0.19	0.21	0.42	0.225	0.166	0.442	0.369	0.479	0.381	0.37	0.612	0.521	0.589	0.592	0.588	–	–	–	–
NCI-H1944	0.839	0.736	0.752	0.777	0.724	–	0.449	0.442	0.443	0.389	–	0.547	0.488	0.476	0.488	–	–	–	–
NCI-H2170	0.594	1.11	0.992	0.752	0.609	0.403	0.464	0.441	0.438	0.495	0.754	0.758	0.767	0.759	0.831	–	–	–	–
NCI-H2228	0.14	0.163	0.105	0.135	0.186	–	–	–	–	–	0.462	0.324	0.599	0.575	0.302	0.789	0.807	0.907	0.594
NCI-H2342	0.742	0.816	0.788	0.718	0.68	0.693	0.638	0.725	0.68	0.773	0.697	0.711	0.836	0.804	0.793	–	–	–	–
SK-MES-1	0.766	0.822	0.763	0.622	0.633	0.397	0.365	0.373	0.395	0.36	1.03	0.997	1.16	0.987	0.894	–	–	–	–
SW 900	0.161	0.174	0.186	0.135	0.192	–	0.406	0.466	0.42	0.351	–	0.473	0.403	0.37	0.505	–	–	–	–
